Measured values taken from ChEMBL document CHEMBL5244218, “Quinolone derivatives and their activities against methicillin-resistant Staphylococcus aureus (MRSA)” (Eur J Med Chem, 2018).
Converted amounts (≈) assume the structure as drawn.

Experiments:
Staphylococcus aureus [1] = experiment: Bactericidal activity against methicillin-resistant Staphylococcus aureus assessed as inhibition of microbial growth; type: functional
Staphylococcus aureus [2] = experiment: Antimicrobial activity against methicillin-resistant Staphylococcus aureus assessed as inhibition of microbial growth; type: functional
Staphylococcus aureus [3] = experiment: Antibacterial activity against methicillin-resistant Staphylococcus aureus assessed as inhibition of microbial growth; type: functional
Staphylococcus aureus [4] = experiment: Antimicrobial activity against methicillin-resistant Staphylococcus aureus incubated for 18 hrs by Alamar blue staining based analysis; type: functional
Staphylococcus aureus [5] = experiment: Antimicrobial activity against methicillin-resistant Staphylococcus aureus incubated for 18 hrs by Agar dilution method; type: functional
Staphylococcus aureus [6] = experiment: Antibacterial activity against methicillin-resistant Staphylococcus aureus isolates by two fold dilution method; type: functional
Staphylococcus aureus [7] = experiment: Antimicrobial activity against methicillin-resistant Staphylococcus aureus; type: functional, organism-based
Staphylococcus aureus [8] = experiment: Antimicrobial activity against methicillin-resistant Staphylococcus aureus isolates by agar dilution method; type: functional

COc1ccccc1C(=O)N1CCN(C(=O)N2CCN(c3ccc4c(=O)c(C(=O)O)cn(C5CC5)c4c3)CC2)CC1
MBC (Staphylococcus aureus [1]): ≥ 128 µg/mL
MIC (Staphylococcus aureus [2]): < 0.016 µg/mL

CC(=O)c1c(N2CC(CN)C(C)(C)C2)ccc2c(=O)c(C(=O)O)cn(C3CC3)c12 (stereo not given)
MIC (Staphylococcus aureus [3]): 0.015 µg/mL

COc1c(N2CC/C(=N/Oc3ccc(C)c(C)c3)C(N)C2)c(F)cc2c(=O)c(C(=O)O)cn(C3CC3)c12 (stereo not given)
MIC (Staphylococcus aureus [4]): 0.008 µg/mL (≈ 0.0157 µM)

COc1ccc(O/N=C2/CCN(c3c(F)cc4c(=O)c(C(=O)O)cn(C5CC5)c4c3OC)CC2N)cc1 (stereo not given)
MIC (Staphylococcus aureus [4]): 0.008 µg/mL (≈ 0.0157 µM)

Cn1nc2c(c1N)CN(c1nc3c(cc1F)c(=O)c(C(=O)O)cn3-c1ccc(F)cc1F)C2
MIC (Staphylococcus aureus [5]): 0.125 µg/mL (≈ 0.274 µM)

COc1cccc(O/N=C2/CCN(c3c(F)cc4c(=O)c(C(=O)O)cn(C5CC5)c4c3OC)CC2N)c1 (stereo not given)
MIC (Staphylococcus aureus [4]): 0.008 µg/mL (≈ 0.0157 µM)

COc1ccc(C(=O)N2CCN(C(=O)N3CCN(c4ccc5c(=O)c(C(=O)O)cn(C6CC6)c5c4)CC3)CC2)cc1
MBC (Staphylococcus aureus [1]): ≥ 128 µg/mL
MIC (Staphylococcus aureus [2]): < 0.016 µg/mL

CC(=O)c1c(N2Cc3nn(C)c(N)c3C2)c(F)cc2c(=O)c(C(=O)O)cn(C3CC3)c12
MIC (Staphylococcus aureus [5]): 0.125 µg/mL (≈ 0.294 µM)

Cn1nc2c(c1N)CN(c1c(F)cc3c(=O)c(C(=O)O)cn(CCF)c3c1F)C2
MIC (Staphylococcus aureus [5]): 0.125 µg/mL (≈ 0.307 µM)

O=C(O)c1c[nH]c2cc(N3CCN([C@@H]4O[C@H](CO)[C@@H](O)[C@H](O)[C@H]4O)CC3)c(F)cc2c1=O
MIC (Staphylococcus aureus [2]): 0.5 µg/mL

O=C(O)c1c(=O)c2cc(F)c(N3CCOCC3)c3c2n2c(csc12)CN3
MIC (Staphylococcus aureus [6]): 0.05 µg/mL (≈ 0.133 µM)

CC(=O)c1c(N2Cc3n[nH]c(N)c3C2)c(F)cc2c(=O)c(C(=O)O)cn(C3CC3)c12
MIC (Staphylococcus aureus [5]): 0.125 µg/mL (≈ 0.304 µM)

O=C(O)c1c[nH]c2cc(N3CCN([C@@H]4O[C@H](CO)[C@H](O)[C@H](O)[C@H]4O)CC3)c(F)cc2c1=O
MIC (Staphylococcus aureus [2]): 0.5 µg/mL

O=C(O)c1cn(C2CC2)c2c(c1=O)C=C(F)C1N=NC(c3cccc([N+](=O)[O-])c3)=CN21 (stereo not given)
MIC (Staphylococcus aureus [2]): 0.25 µg/mL

CNCC1CN(c2ccc3c(=O)c(C(=O)O)cn(C4CC4)c3c2C(C)=O)CC1(C)C (stereo not given)
MIC (Staphylococcus aureus [3]): 0.015 µg/mL

COc1cc(Br)ccc1O/N=C1/CCN(c2c(F)cc3c(=O)c(C(=O)O)cn(C4CC4)c3c2OC)CC1N (stereo not given)
MIC (Staphylococcus aureus [4]): 0.008 µg/mL (≈ 0.0136 µM)

CC1(C)CN(c2ccc3c(=O)c(C(=O)O)cn(C4CC4)c3n2)CC1CN (stereo not given)
MIC (Staphylococcus aureus [3]): 0.015 µg/mL

Nc1ccc(C2=CN3c4c(c(=O)c(C(=O)O)cn4C4CC4)C=C(F)C3N=N2)cc1 (stereo not given)
MIC (Staphylococcus aureus [2]): 0.25 µg/mL

CCc1ccc(O/N=C2/CCN(c3c(F)cc4c(=O)c(C(=O)O)cn(C5CC5)c4c3OC)CC2N)cc1CC (stereo not given)
MIC (Staphylococcus aureus [4]): 0.008 µg/mL (≈ 0.0149 µM)

Cc1ccccc1C1=CN2c3c(c(=O)c(C(=O)O)cn3C3CC3)C=C(F)C2N=N1 (stereo not given)
MIC (Staphylococcus aureus [2]): 0.25 µg/mL

COc1ccccc1O/N=C1/CCN(c2c(F)cc3c(=O)c(C(=O)O)cn(C4CC4)c3c2OC)CC1N (stereo not given)
MIC (Staphylococcus aureus [4]): 0.008 µg/mL (≈ 0.0157 µM)

COc1cccc(O/N=C2/CCN(c3c(F)cc4c(=O)c(C(=O)O)cn(C5CC5)c4c3OC)CC2N)c1OC (stereo not given)
MIC (Staphylococcus aureus [4]): 0.008 µg/mL (≈ 0.0148 µM)

CCn1cc(C(=O)O)c(=O)c2cc(F)c(N3Cc4nn(C)c(N)c4C3)c(F)c21
MIC (Staphylococcus aureus [5]): 0.125 µg/mL (≈ 0.321 µM)

Cc1ccc(C2=CN3c4c(c(=O)c(C(=O)O)cn4C4CC4)C=C(F)C3N=N2)cc1 (stereo not given)
MIC (Staphylococcus aureus [2]): 0.25 µg/mL

COc1c(N2CC/C(=N/Oc3ccc(F)cc3)C(N)C2)c(F)cc2c(=O)c(C(=O)O)cn(C3CC3)c12 (stereo not given)
MIC (Staphylococcus aureus [4]): 0.008 µg/mL (≈ 0.016 µM)

COc1ccccc1C1=CN2c3c(c(=O)c(C(=O)O)cn3C3CC3)C=C(F)C2N=N1 (stereo not given)
MIC (Staphylococcus aureus [2]): 0.25 µg/mL

COc1ccc(C2=CN3c4c(c(=O)c(C(=O)O)cn4C4CC4)C=C(F)C3N=N2)cc1 (stereo not given)
MIC (Staphylococcus aureus [2]): 0.25 µg/mL

CC(=O)c1c(N2CC(CN)C(C)(C)C2)cc(N)c2c(=O)c(C(=O)O)cn(C3CC3)c12 (stereo not given)
MIC (Staphylococcus aureus [3]): 0.015 µg/mL

Nc1[nH]nc2c1CN(c1nc3c(cc1F)c(=O)c(C(=O)O)cn3C1CC1)C2
MIC (Staphylococcus aureus [5]): 0.125 µg/mL (≈ 0.338 µM)

CCNCC1CCN(c2c(F)cc3c(=O)c(C(=O)O)c4scc5n4c3c2NC5)C1 (stereo not given)
MIC (Staphylococcus aureus [6]): 0.05 µg/mL (≈ 0.12 µM)

CCO/N=C1\CCN(c2c(F)cc3c(=O)c(C(=O)O)cn(C4CC4)c3c2F)CC1(C)CN (stereo not given)
MIC (Staphylococcus aureus [7]): 8 µg/mL (≈ 17.8 µM)

COc1c(N2CC/C(=N/Oc3ccccc3)C(N)C2)c(F)cc2c(=O)c(C(=O)O)cn(C3CC3)c12 (stereo not given)
MIC (Staphylococcus aureus [4]): 0.008 µg/mL (≈ 0.0166 µM)

CNCC1CN(c2ccc3c(=O)c(C(=O)O)cn(-c4ccc(F)cc4F)c3n2)CC1(C)C (stereo not given)
MIC (Staphylococcus aureus [3]): 0.015 µg/mL

O=C(O)c1cn(C2CC2)c2c(c1=O)C=C(F)C1N=NC(c3ccc([N+](=O)[O-])cc3)=CN21 (stereo not given)
MIC (Staphylococcus aureus [2]): 0.25 µg/mL

CNC1CCCN(c2c(F)cc3c(=O)c(C(=O)O)cn(C4CC4)c3c2OC)C1 (stereo not given) [BALOFLOXACIN]
MIC (Staphylococcus aureus [4]): 4 µg/mL (≈ 10.3 µM)

COc1c(N2CCNC(C)C2)c(F)cc2c(=O)c(C(=O)O)cn(C3CC3)c12 (stereo not given) [GATIFLOXACIN]
MIC (Staphylococcus aureus [3]): 0.06 µg/mL
MIC (Staphylococcus aureus [5]): 0.06 µg/mL (≈ 0.16 µM)
MIC (Staphylococcus aureus [7]): 16 µg/mL (≈ 42.6 µM)

CO/N=C1\CN(c2nc3c(cc2F)c(=O)c(C(=O)O)cn3C2CC2)CC1CN (stereo not given) [GEMIFLOXACIN]
MIC (Staphylococcus aureus [5]): 0.06 µg/mL (≈ 0.154 µM)
MIC (Staphylococcus aureus [4]): 4 µg/mL (≈ 10.3 µM)

C[C@H]1COc2c(N3CCN(C)CC3)c(F)cc3c(=O)c(C(=O)O)cn1c23.C[C@H]1COc2c(N3CCN(C)CC3)c(F)cc3c(=O)c(C(=O)O)cn1c23.O [LEVOFLOXACIN]
MIC (Staphylococcus aureus [8]): 0.5 µg/mL
MIC (Staphylococcus aureus [5]): 0.06 µg/mL
MIC (Staphylococcus aureus [4]): 32 µg/mL
MIC (Staphylococcus aureus [7]): 16 µg/mL
MIC (Staphylococcus aureus [6]): 1.56 µg/mL

COc1c(N2C[C@@H]3CCCN[C@@H]3C2)c(F)cc2c(=O)c(C(=O)O)cn(C3CC3)c12 [MOXIFLOXACIN]
MIC (Staphylococcus aureus [5]): 0.06 µg/mL (≈ 0.149 µM)

CC1COc2c(N3CCN(C)CC3)c(F)cc3c(=O)c(C(=O)O)cn1c23 (stereo not given) [OFLOXACIN]
MIC (Staphylococcus aureus [6]): 1.56 µg/mL (≈ 4.32 µM)

CCn1cc(C(=O)O)c(=O)c2cc(F)c(N3CCN(C)CC3)cc21 [PEFLOXACIN]
MIC (Staphylococcus aureus [6]): 1.56 µg/mL (≈ 4.68 µM)
